This data set relates to CCRIS mutagenicity, Ames/micronucleus/aberration tests. The experiment in a line: CCRIS mutagenicity studies.
Setting [1] is: Test System: AMES SALMONELLA TYPHIMURIUM, Strain/Indicator: TA98, Metabolic Activation: NONE, Method: STANDARD PLATE.
[2] abbreviates: Test System: AMES SALMONELLA TYPHIMURIUM, Strain/Indicator: TA100, Metabolic Activation: NONE, Method: STANDARD PLATE.
The mark [3] stands for this setting: Test System: AMES SALMONELLA TYPHIMURIUM, Strain/Indicator: TA1535, Metabolic Activation: NONE, Method: STANDARD PLATE.
Where [4] appears, read: Test System: AMES SALMONELLA TYPHIMURIUM, Strain/Indicator: TA1537, Metabolic Activation: NONE, Method: STANDARD PLATE.
The mark [5] stands for this setting: Test System: AMES SALMONELLA TYPHIMURIUM, Strain/Indicator: TA1538, Metabolic Activation: NONE, Method: STANDARD PLATE.

SMILES strings stand for the structures. The source made the active and inactive calls. No rule for the calls is given here.

As for `Nc1ccc2nc3ccc(N)cc3nc2c1`, the mutagenic call is, setting by setting: (Test System: AMES SALMONELLA TYPHIMURIUM, Strain/Indicator: TA98, Metabolic Activation: NONE, Method: PREINCUBATION) “inactive; negative”; (Test System: AMES SALMONELLA TYPHIMURIUM, Strain/Indicator: TA98, Metabolic Activation: RAT, LIVER, S-9, PCB, Method: PREINCUBATION) “active; positive”.

For the molecule `O=C(O)Cc1c[nH]c2ccccc12`, the mutagenic call is, setting by setting: (Test System: AMES SALMONELLA TYPHIMURIUM, Strain/Indicator: TA97A, Metabolic Activation: NONE, Method: STANDARD PLATE) “inactive; negative”; (Test System: AMES SALMONELLA TYPHIMURIUM, Strain/Indicator: TA97A, Metabolic Activation: RAT, LIVER, S-9, AROCLOR 1254, Method: STANDARD PLATE) “inactive; negative”; under setting [1], “inactive; negative”; (Test System: AMES SALMONELLA TYPHIMURIUM, Strain/Indicator: TA98, Metabolic Activation: RAT LIVER S-9, 3-METHYLCHOLANTHRENE AND PHENOBARBITAL, Method: STANDARD PLATE) “inactive; negative”; (Test System: AMES SALMONELLA TYPHIMURIUM, Strain/Indicator: TA98, Metabolic Activation: RAT, LIVER, S-9, AROCLOR 1254, Method: STANDARD PLATE) “inactive; negative”; (Test System: AMES SALMONELLA TYPHIMURIUM, Strain/Indicator: TA100, Metabolic Activation: NONE, Method: PREINCUBATION) “inactive; negative”. Further, the mutagenic call was “inactive; negative” under setting [2]; “inactive; negative” (Test System: AMES SALMONELLA TYPHIMURIUM, Strain/Indicator: TA100, Metabolic Activation: RAT LIVER S-9, 3-METHYLCHOLANTHRENE AND PHENOBARBITAL, Method: STANDARD PLATE); “inactive; negative” (Test System: AMES SALMONELLA TYPHIMURIUM, Strain/Indicator: TA100, Metabolic Activation: RAT, LIVER, S-9, AROCLOR 1254, Method: STANDARD PLATE); “inactive; negative” under setting [3]; “inactive; negative” (Test System: AMES SALMONELLA TYPHIMURIUM, Strain/Indicator: TA1535, Metabolic Activation: RAT, LIVER, S-9, AROCLOR 1254, Method: STANDARD PLATE); “inactive; negative” under setting [4]. Moreover, the mutagenic call (Test System: AMES SALMONELLA TYPHIMURIUM, Strain/Indicator: TA1537, Metabolic Activation: RAT, LIVER, S-9, AROCLOR 1254, Method: STANDARD PLATE) is “inactive; negative”; the mutagenic call under setting [5] was “inactive; negative”; the mutagenic call (Test System: AMES SALMONELLA TYPHIMURIUM, Strain/Indicator: TA1538, Metabolic Activation: RAT, LIVER, S-9, AROCLOR 1254, Method: STANDARD PLATE) was “inactive; negative”.

As for `COCC(=O)N(c1c(C)cccc1C)C(C)C(=O)OC` (configuration not stated), the mutagenic call was “inactive; negative (positive only at 50 ug/ml dose)” (End Point: In vitro micronucleus, Test System: Human lymphocytes, Metabolic Activation: None) and “active; positive (at high dose)” (End Point: In vivo micronucleus, Test System: Bone marrow polychromatic erythrocytes, Species: Rat, Strain/Sex: Wistar/Male, Route: Oral).

For the molecule `COc1ccc2nc3cc(Cl)ccc3c(NCCCNCCCl)c2n1`, the mutagenic call by setting is: under setting [1], “active; positive”; under setting [2], “active; positive”; under setting [3], “inactive; negative”; (Test System: AMES SALMONELLA TYPHIMURIUM, Strain/Indicator: TA1536, Metabolic Activation: NONE, Method: STANDARD PLATE) “active; positive”; under setting [4], “active; positive”; under setting [5], “active; positive”. For the same molecule, the mutagenic call (Test System: CHO/HGPRT, Strain/Indicator: CHO-K1-BH4, Metabolic Activation: NONE, Method: STANDARD PLATE) was “active; positive”.

With `CC(CF)NCC(O)COc1cccc2[nH]c3ccccc3c12` (configuration not stated), the mutagenic call by setting is: under setting [1], “inactive; negative”; (Test System: AMES SALMONELLA TYPHIMURIUM, Strain/Indicator: TA98, Metabolic Activation: RAT LIVER S-9, AROCLOR 1254, 5%, Method: STANDARD PLATE) “inactive; negative”; under setting [2], “active; positive”; (Test System: AMES SALMONELLA TYPHIMURIUM, Strain/Indicator: TA100, Metabolic Activation: RAT LIVER S-9, AROCLOR 1254, 5%, Method: STANDARD PLATE) “active; positive”; under setting [3], “active; positive”; (Test System: AMES SALMONELLA TYPHIMURIUM, Strain/Indicator: TA1535, Metabolic Activation: RAT LIVER S-9, AROCLOR 1254, 5%, Method: STANDARD PLATE) “active; positive”.

On to `Cc1ccc2c(c1)c(=NC(=O)CCCl)sn2C(=O)CCCl`, for which, under “Test System: AMES SALMONELLA TYPHIMURIUM, Strain/Indicator: TA100, Metabolic Activation: S-9, Method: STANDARD PLATE”, the mutagenic call is “inactive; negative”.

For the molecule `CN=C([S-])N/N=C/C(C)=N/NC([S-])=NC.[Cu+2]`, the mutagenic call by setting is: under setting [1], “inactive; negative”; (Test System: AMES SALMONELLA TYPHIMURIUM, Strain/Indicator: TA98, Metabolic Activation: RAT, LIVER, S-9, AROCLOR, Method: STANDARD PLATE) “inactive; negative”; under setting [2], “inactive; negative”; (Test System: AMES SALMONELLA TYPHIMURIUM, Strain/Indicator: TA100, Metabolic Activation: RAT, LIVER, S-9, AROCLOR, Method: STANDARD PLATE) “inactive; negative”.

For the origin of these results see PubChem BioAssay AID1259407 (Chemical Carcinogenesis Research Information System (CCRIS), 2018).
